# What was measured:
# H1299 (lung) = experiment: In vitro cytotoxic activity MTT assay, H1299; format: cell-based; details: Homo sapiens, NCI-H1299, 96 hours exposure, read-out: IC50, 50% inhibition of cell proliferation
# Procedure: (§1) Compounds 1-16 were screened for their in vitro cytotoxic activity utilizing a 3-(4,5-dimethyl-thiazol-2-yl)-2,5-diphenyltetrazolium bromide (MTT) assay against selected cancer human cell lines consisting of PC3 (prostate), HCT116 (colon), A375 (melanoma), H1299 (lung), MIAPaCa-2 (pancreas), HL60 (leukemia), MCF7 (breast), MDA-MB-231 (breast) (T. Mosmann, J. Immunol. Meth., 1983, 65, 55-63). The cells were cultured at 37° C. in RMPI1640 medium supplemented with 10% fetal bovine serum, 50 IU/mL penicillin, and 50 μg/mL streptomycin in a 5% CO2 incubator. All cells were sub-cultured 3 times/week by trypsinisation. Viable cells were seeded and allowed to adhere for 12 h before a test drug was added in 96-well plates at an initial density of 1.0×10^5 cells/mL. Tumor cell lines were separately exposed to various concentrations of the tested compounds followed by incubation at a temperature of 37° C. during 96 h inside a medium of fresh RMPI 1640. Cells were subsequently incubated at 37° C. using MTT at 0.5 mg/mL during 4 h. After removal of supernatant, formazan crystals were dissolved in isopropanol and the optical density was measured at 570 nm. CX-4945 was used as a positive control.
# HCT116 (colon) = experiment: In vitro cytotoxic activity MTT assay, HCT116; format: cell-based; details: Homo sapiens, HCT-116, 96 hours exposure, read-out: IC50, 50% inhibition of cell proliferation
# Procedure: as §1
# HL60 (leukemia) = experiment: In vitro cytotoxic activity MTT assay, HL60; format: cell-based; details: Homo sapiens, HL-60, 96 hours exposure, read-out: IC50, 50% inhibition of cell proliferation
# Procedure: as §1
# [1] = target: T1, recombinant human CK2 (RRββ-holoenzyme) (Homo sapiens, UniProt P68400); experiment: CK2 Kinase Assay (33P-ATP, filter plate); format: biochemical; details: final ATP concentration 15 μM, 10 min at 30° C.; read-out: protein kinase CK2 IC50
# T1 construct: purchased Millipore
# Procedure: CK2 Kinase Assay was conducted using the protocol as described in Pierre F. et al; J. Med. Chem. 2011, 54, 635-654. The tested compounds in aqueous solution were added at a volume of 10 μL to a reaction mixture comprising 10 μL of assay dilution buffer (ADB; 20 mM MOPS, pH 7.2, 25 mM β-glycerol phosphate, 5 mM EGTA, 1 mM sodium orthovanadate, and 1 mM dithiothreitol), 10 μL of substrate peptide (RRRDDDSDDD, dissolved in ADB at a concentration of 1 mM), 10 μL of recombinant human CK2 (RRββ-holoenzyme, 25 ng dissolved in ADB; Millipore). Reactions were initiated by the addition of 10 μL of ATP solution (90% 75 mMMgCl2, 75 μM ATP (final ATP concentration: 15 μM) dissolved in ADB; 10% [γ-33P] ATP (stock 1mCi/100 μL; 3000 Ci/mmol (Perkin-Elmer) and maintained for 10 min at 30° C. The reactions were quenched with 100 μL of 0.75% phosphoric acid and then transferred to and filtered through a phosphor cellulose filter plate (Millipore). After washing each well five times with 0.75% phosphoric acid, the plate was dried under vacuum for 5 min and, following the addition of 15 μL of scintillation fluid to each well, the residual radioactivity was measured using a Wallac […]. The IC50 values were derived from eight concentrations of test inhibitors.
# MCF7 (breast) = experiment: In vitro cytotoxic activity MTT assay, MCF7; format: cell-based; details: Homo sapiens, 96 hours exposure, read-out: IC50, 50% inhibition of cell proliferation
# Procedure: as §1
# MIAPaCa-2 (pancreas) = experiment: In vitro cytotoxic activity MTT assay, MIAPaCa-2; format: cell-based; details: Homo sapiens, MIA PaCa-2, 96 hours exposure, read-out: IC50, 50% inhibition of cell proliferation
# Procedure: as §1
# PC3 (prostate) = experiment: In vitro cytotoxic activity MTT assay, PC3; format: cell-based; details: Homo sapiens, 96 hours exposure, read-out: IC50, 50% inhibition of cell proliferation
# Procedure: as §1
# MDA-MB-231 (breast) = experiment: In vitro cytotoxic activity MTT assay, MDA-MB-231; format: cell-based; details: Homo sapiens, 96 hours exposure, read-out: IC50, 50% inhibition of cell proliferation
# Procedure: as §1
# A375 (melanoma) = experiment: In vitro cytotoxic activity MTT assay, A375; format: cell-based; details: Homo sapiens, A-375, 96 hours exposure, read-out: IC50, 50% inhibition of cell proliferation
# Procedure: as §1
# T1 sequence (P68400 whole entry): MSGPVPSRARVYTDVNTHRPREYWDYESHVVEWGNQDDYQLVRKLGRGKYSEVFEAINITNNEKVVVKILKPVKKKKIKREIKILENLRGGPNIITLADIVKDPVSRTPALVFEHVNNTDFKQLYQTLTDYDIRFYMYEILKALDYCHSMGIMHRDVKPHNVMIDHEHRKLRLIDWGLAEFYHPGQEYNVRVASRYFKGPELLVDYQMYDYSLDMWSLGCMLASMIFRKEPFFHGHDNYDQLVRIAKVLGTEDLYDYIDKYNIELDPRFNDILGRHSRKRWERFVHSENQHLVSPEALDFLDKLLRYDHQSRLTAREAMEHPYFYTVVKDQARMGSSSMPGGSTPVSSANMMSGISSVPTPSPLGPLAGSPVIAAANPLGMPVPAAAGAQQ
# T1 sequence (P67870 whole entry partner): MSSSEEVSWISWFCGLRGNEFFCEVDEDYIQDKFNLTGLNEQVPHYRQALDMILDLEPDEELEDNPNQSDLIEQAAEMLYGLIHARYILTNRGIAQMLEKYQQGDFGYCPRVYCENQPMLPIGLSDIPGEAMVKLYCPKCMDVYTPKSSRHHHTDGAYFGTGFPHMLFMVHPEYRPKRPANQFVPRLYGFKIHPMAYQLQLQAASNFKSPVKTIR
compound,measurement,setting,value
"O=C(O)c1cc2c(Nc3cccc(Cl)c3)nc3cnccc3c2[nH]1 [Example 1, 4-((3-chlorophenyl)amino)-1H-pyrrolo[3,2-c][1,7]naphthyridine-2-carboxylic acid]",IC50,H1299 (lung),1.6 µM
same,IC50,HCT116 (colon),1.1 µM
same,IC50,HL60 (leukemia),2 µM
same,IC50,[1],0.031 µM
same,IC50,MCF7 (breast),3.9 µM
same,IC50,MIAPaCa-2 (pancreas),1.4 µM
same,IC50,PC3 (prostate),2.3 µM
same,IC50,MDA-MB-231 (breast),3.5 µM
same,IC50,A375 (melanoma),3.2 µM

# — US11884669B1, “Pyrrolo[3,2-c][1,7]naphthyridine-2-carboxylic acid compounds as CK2 inhibitors” (KING FAISAL UNIVERSITY, priority 2023, dated 2024)
